What is called Ki is the equilibrium dissociation constant of an inhibitor or competing ligand from its target.

This passage reports Ki results from ChEMBL document CHEMBL5634098, “Hydrophobicity modulation via the substituents at positions 2 and 4 of 1,3,5-triazine to enhance therapeutic ability against Alzheimer's disease for potent serotonin 5-HT6R agents” (Eur J Med Chem, 2023).

What all share (set-up): species or system Membrane
In one assay the target is D(2) dopamine receptor (Homo sapiens, UniProt P14416). Description: Displacement of [3H]-raclopride from human D2 receptor expressed in HEK293 cell membranes assessed as inhibition constant incubated for 1 hr by Microbeta plate reader based analysis.
Assay [1] concerns the target 5-hydroxytryptamine receptor 2A (Homo sapiens, UniProt P28223). Description: Displacement of [3H]-ketanserin from human 5-HT2A receptor expressed in HEK293 cell membranes assessed as inhibition constant incubated for 1 hr by Microbeta plate reader based analysis. (In general: Displacement assays read how much labelled ligand stays bound in the presence of the test substance.)

Assay [2] deals with T1, 5-hydroxytryptamine receptor 1A (Homo sapiens, UniProt P08908).
T1 sequence (P08908 whole entry): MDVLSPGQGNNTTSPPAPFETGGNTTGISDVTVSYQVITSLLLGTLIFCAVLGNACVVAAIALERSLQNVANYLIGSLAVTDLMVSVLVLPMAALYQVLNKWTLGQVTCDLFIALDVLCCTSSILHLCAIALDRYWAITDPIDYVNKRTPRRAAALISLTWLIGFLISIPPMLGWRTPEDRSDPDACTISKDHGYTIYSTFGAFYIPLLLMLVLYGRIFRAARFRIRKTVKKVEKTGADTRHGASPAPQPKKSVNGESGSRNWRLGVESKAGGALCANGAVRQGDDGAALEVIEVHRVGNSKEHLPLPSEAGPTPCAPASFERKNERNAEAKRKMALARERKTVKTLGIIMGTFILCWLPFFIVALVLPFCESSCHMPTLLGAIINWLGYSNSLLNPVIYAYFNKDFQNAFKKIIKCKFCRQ
Description: Displacement of [3H]-8-OH-DPAT from human 5-HT1A receptor expressed in HEK293 cell membranes assessed as inhibition constant incubated for 1 hr by Microbeta plate reader based analysis.

Assay [3] has as its target 5-hydroxytryptamine receptor 6 (Homo sapiens, UniProt P50406). The experiment in a line: Displacement of [3H]-LSD from human 5-HT6 receptor expressed in HEK293 cell membranes assessed as inhibition constant incubated for 1 hr by Microbeta plate reader based analysis.
Assay [4] has as its target 5-hydroxytryptamine receptor 7 (Homo sapiens, UniProt P34969). The experiment in a line: Displacement of [3H]-5-CT from human 5-HT7 receptor expressed in HEK293 cell membranes assessed as inhibition constant incubated for 1 hr by Microbeta plate reader based analysis.

Chain of 5-hydroxytryptamine receptor 2A (P28223 whole entry): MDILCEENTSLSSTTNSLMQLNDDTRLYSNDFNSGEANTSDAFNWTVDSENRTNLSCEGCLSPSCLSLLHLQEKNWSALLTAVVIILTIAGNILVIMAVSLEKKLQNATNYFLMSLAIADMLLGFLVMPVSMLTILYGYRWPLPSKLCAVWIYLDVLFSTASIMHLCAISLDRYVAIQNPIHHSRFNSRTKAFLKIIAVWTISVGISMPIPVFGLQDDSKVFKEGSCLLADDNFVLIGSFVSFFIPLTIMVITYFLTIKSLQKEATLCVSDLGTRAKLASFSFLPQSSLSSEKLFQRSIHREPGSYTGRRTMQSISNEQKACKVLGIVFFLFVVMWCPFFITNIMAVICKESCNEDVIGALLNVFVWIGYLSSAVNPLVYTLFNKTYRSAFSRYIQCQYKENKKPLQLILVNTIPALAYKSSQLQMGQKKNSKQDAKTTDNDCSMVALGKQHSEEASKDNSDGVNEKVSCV
Chain of 5-hydroxytryptamine receptor 7 (P34969 whole entry): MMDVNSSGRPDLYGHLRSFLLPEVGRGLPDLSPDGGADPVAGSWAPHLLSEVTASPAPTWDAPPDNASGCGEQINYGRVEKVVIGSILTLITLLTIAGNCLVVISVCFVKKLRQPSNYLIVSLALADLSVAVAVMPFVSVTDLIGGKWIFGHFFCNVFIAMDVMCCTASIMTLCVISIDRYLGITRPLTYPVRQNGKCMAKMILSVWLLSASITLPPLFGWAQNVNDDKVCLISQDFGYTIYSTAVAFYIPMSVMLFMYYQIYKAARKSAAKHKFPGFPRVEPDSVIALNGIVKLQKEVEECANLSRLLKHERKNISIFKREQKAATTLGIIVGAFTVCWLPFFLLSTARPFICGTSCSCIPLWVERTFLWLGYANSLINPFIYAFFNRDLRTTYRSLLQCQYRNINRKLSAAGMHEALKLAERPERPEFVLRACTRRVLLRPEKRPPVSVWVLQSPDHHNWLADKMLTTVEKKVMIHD
Chain of D(2) dopamine receptor (P14416 whole entry): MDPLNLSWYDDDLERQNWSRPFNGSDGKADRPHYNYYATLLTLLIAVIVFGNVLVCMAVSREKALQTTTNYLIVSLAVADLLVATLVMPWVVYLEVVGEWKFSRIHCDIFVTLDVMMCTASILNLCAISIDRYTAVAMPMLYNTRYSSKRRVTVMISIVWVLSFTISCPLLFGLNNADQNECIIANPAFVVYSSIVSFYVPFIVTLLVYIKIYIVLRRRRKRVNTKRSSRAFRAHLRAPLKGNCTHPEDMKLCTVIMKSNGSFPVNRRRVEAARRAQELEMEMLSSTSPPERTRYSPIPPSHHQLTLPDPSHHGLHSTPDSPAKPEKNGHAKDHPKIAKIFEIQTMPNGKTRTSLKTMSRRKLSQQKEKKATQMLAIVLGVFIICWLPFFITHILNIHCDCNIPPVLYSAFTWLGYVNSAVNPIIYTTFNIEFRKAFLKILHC
Chain of 5-hydroxytryptamine receptor 6 (P50406 whole entry): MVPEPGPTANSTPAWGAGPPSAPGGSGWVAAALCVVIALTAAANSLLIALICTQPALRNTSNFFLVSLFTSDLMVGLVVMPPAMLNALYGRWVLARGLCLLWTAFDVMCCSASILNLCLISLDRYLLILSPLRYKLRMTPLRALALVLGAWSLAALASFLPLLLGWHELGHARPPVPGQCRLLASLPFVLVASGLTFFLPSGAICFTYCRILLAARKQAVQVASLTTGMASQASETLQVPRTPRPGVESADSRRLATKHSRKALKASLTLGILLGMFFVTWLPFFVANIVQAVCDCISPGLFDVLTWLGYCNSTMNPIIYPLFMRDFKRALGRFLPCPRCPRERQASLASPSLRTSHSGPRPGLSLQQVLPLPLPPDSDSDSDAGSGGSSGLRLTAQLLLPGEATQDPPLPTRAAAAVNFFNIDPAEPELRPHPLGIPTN

On to `CCC(Oc1cc(F)ccc1OC)c1nc(N)nc(N2CCN(C)CC2)n1` (stereo not given), for which the Ki on D(2) dopamine receptor worked out at 1790 nM; in assay [1], 819 nM; in assay [2], 4750 nM; in assay [3], 72 nM; in assay [4], 45000 nM.
Turning to `CC(Oc1cc(C(F)(F)F)ccc1C(F)(F)F)c1nc(N)nc(N2CCN(C)CC2)n1` (stereo not given), the inhibition constant (Ki) worked out at 811 nM on D(2) dopamine receptor; 797 nM in assay [1]; 5760 nM in assay [2]; 35 nM in assay [3]; 20000 nM in assay [4].
Taken in the same sequence, the figures for `CC(Oc1cc(F)ccc1F)c1nc(N)nc(N2CCN(C)CC2)n1` (stereo not given) were 1020 nM, 2280 nM, 3110 nM, 56 nM and 21700 nM.
Taken in the same sequence, the figures for `CC(Oc1cc(F)ccc1Cl)c1nc(N)nc(N2CCN(C)CC2)n1` (stereo not given) were 1440 nM, 2670 nM, 1540 nM, 39 nM and 7240 nM.
Taken in the same sequence, the figures for `COc1ccc(F)cc1OC(C)c1nc(N)nc(N2CCN(C)CC2)n1` (stereo not given) were 2430 nM, 2400 nM, 6170 nM, 60 nM and 108000 nM.
As for `CC(Oc1cccc(F)c1F)c1nc(N)nc(N2CCN(C)CC2)n1` (stereo not given), the inhibitory constant (Ki) was found to be 1350 nM on D(2) dopamine receptor; 704 nM in assay [1]; 4720 nM in assay [2]; 94 nM in assay [3]; 24000 nM in assay [4].
On to `CCC(Oc1cc(F)ccc1Cl)c1nc(N)nc(N2CCN(C)CC2)n1` (stereo not given), for which the Ki was determined as 602 nM on D(2) dopamine receptor, 311 nM in assay [1], 1750 nM in assay [2] and 18 nM in assay [3].
With `CC(Oc1cc(C(F)(F)F)ccc1F)c1nc(N)nc(N2CCN(C)CC2)n1` (stereo not given), the Ki was 931 nM on D(2) dopamine receptor; 1460 nM in assay [1]; 6070 nM in assay [2]; 52 nM in assay [3]; 17100 nM in assay [4].
On to `CCC(Oc1cccc(F)c1Cl)c1nc(N)nc(N2CCN(C)CC2)n1` (stereo not given), for which the Ki is 3360 nM at D(2) dopamine receptor, 2240 nM in assay [1], 1930 nM in assay [2] and 8680 nM in assay [4].
For the compound `CC(Oc1cc(Cl)ccc1F)c1nc(N)nc(N2CCN(C)CC2)n1` (stereo not given), the Ki on D(2) dopamine receptor came out at 416 nM; in assay [1], 625 nM; in assay [2] it was 2020 nM; in assay [3], 58 nM; in assay [4] it was 11900 nM.
In the same order, the values of `CC(Oc1cc(F)ccc1C(F)(F)F)c1nc(N)nc(N2CCN(C)CC2)n1` (stereo not given) are 408 nM, 629 nM, 6980 nM, 30 nM and 29600 nM.
As to `CCC(Oc1cc(F)ccc1C(F)(F)F)c1nc(N)nc(N2CCN(C)CC2)n1` (stereo not given), the inhibition constant Ki on D(2) dopamine receptor was found to be 260 nM; in assay [1] it was 281 nM; in assay [2], 2910 nM; in assay [3], 15 nM; in assay [4], 7330 nM.
For `CCC(Oc1cc(Cl)cc(Cl)c1)c1nc(Nc2ccccc2)nc(N2CCN(C)CC2)n1` (stereo not given), the inhibition constant (Ki) at D(2) dopamine receptor was found to be 565 nM; in assay [1] it was 1680 nM; in assay [2], 19200 nM; in assay [4], 16200 nM.
On to `CCC(Oc1cccc(F)c1F)c1nc(N)nc(N2CCN(C)CC2)n1` (stereo not given), for which the Ki on D(2) dopamine receptor was determined as 1300 nM; in assay [1], 3030 nM; in assay [2], 2650 nM; in assay [3] it was 55 nM; in assay [4], 11500 nM.
For `CCC(Oc1cc(C(F)(F)F)ccc1C(F)(F)F)c1nc(N)nc(N2CCN(C)CC2)n1` (stereo not given), the Ki came to 820 nM at D(2) dopamine receptor, 1540 nM in assay [1], 8500 nM in assay [2] and 18100 nM in assay [4].
Regarding `CCC(Oc1cccc(Cl)c1Cl)c1nc(Nc2ccccc2)nc(N2CCN(C)CC2)n1` (stereo not given), the Ki at D(2) dopamine receptor came to 411 nM; in assay [1] it was 117 nM; in assay [2], 4580 nM; in assay [4] it was 2670 nM.
